Source: PubChem BioAssay (NCI)
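Cells were grown in 96-well plates and exposed to each compound for 48 hours at five concentrations; endpoints were interpolated linearly between bracketing concentrations, or set to the highest concentration if not reached. At the TGI there is no net growth.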

Key:
Assay in all cases: growth of human tumour cells (NCI), 48 h
K-562 leukemia = test system: K-562 leukemia
MCF7 breast = test system: MCF7 breast
SNB-19 CNS = test system: SNB-19 CNS
HT29 colon = test system: HT29 colon
LOX IMVI melanoma = test system: LOX IMVI melanoma
NCI-H522 lung = test system: NCI-H522 lung
SNB-75 CNS = test system: SNB-75 CNS
786-0 renal = test system: 786-0 renal
NCI-H460 lung = test system: NCI-H460 lung
UO-31 renal = test system: UO-31 renal
T-47D breast = test system: T-47D breast
SR leukemia = test system: SR leukemia
SF-268 CNS = test system: SF-268 CNS
UACC-62 melanoma = test system: UACC-62 melanoma
MDA-MB-435 = test system: MDA-MB-435
MALME-3M melanoma = test system: MALME-3M melanoma

Compound	TGI (K-562 leukemia)	TGI (MCF7 breast)	TGI (SNB-19 CNS)	TGI (HT29 colon)	TGI (LOX IMVI melanoma)	TGI (NCI-H522 lung)	TGI (SNB-75 CNS)	TGI (786-0 renal)	TGI (NCI-H460 lung)	TGI (UO-31 renal)	TGI (T-47D breast)	TGI (SR leukemia)	TGI (SF-268 CNS)	TGI (UACC-62 melanoma)	TGI (MDA-MB-435)	TGI (MALME-3M melanoma)
CN(O)C(=O)c1ccc(OCc2cccc(Cl)c2)cc1	> 100 µM	> 100 µM	> 100 µM	> 100 µM	> 100 µM	> 100 µM	> 100 µM	53.1 µM	> 100 µM	> 66.5 µM	98.6 µM	> 72.4 µM	> 100 µM	> 79.4 µM	> 100 µM	
CN(C)c1ccc(/C=C(\NC(=O)c2ccccc2)c2nc3ccccc3c(=O)o2)cc1	> 100 µM	> 100 µM	> 100 µM	> 100 µM	> 100 µM	> 100 µM	> 100 µM	> 100 µM	> 100 µM	> 100 µM	> 100 µM		> 100 µM	> 100 µM	> 100 µM	> 100 µM
O=C1CCCSCCCC(=O)CCCSCCC1	> 100 µM	> 100 µM	> 100 µM	> 100 µM	> 100 µM	> 100 µM	> 100 µM	> 100 µM	> 100 µM	> 100 µM	> 100 µM	> 100 µM	> 100 µM	> 100 µM	> 100 µM	
Nc1c(O)c2c(c(O)c1Cl)C(=O)C=CC2=O	> 60.6 µM	3.51 µM	14.2 µM	8.21 µM	16.4 µM	28 µM	12.6 µM	25.5 µM	4.64 µM	24.5 µM	21.5 µM		26.3 µM	3.05 µM	3.16 µM	0.894 µM
Cc1nc(C)c(N2CCN(C(=O)NC(CCC(=O)O)C(=O)O)CC2)c(=O)[nH]1 (centres undefined)	> 100 µM	> 100 µM	> 100 µM	> 100 µM	> 100 µM	> 100 µM		> 100 µM	> 100 µM	> 100 µM	> 100 µM	> 100 µM	> 100 µM	> 100 µM	> 100 µM	> 100 µM
COC(=O)C1=C(O)C(C(=O)OC)[C@]2(O)[C@H](C(=O)OC)[C@H]1C[C@@H](c1ccc(Cl)cc1Cl)[C@H]2C(=O)OC (some centres undefined)	14 µM	23 µM	24.3 µM	27.4 µM	18.7 µM		37.2 µM	> 100 µM	23.2 µM	21.1 µM	96.9 µM	19.2 µM	38.1 µM	35.3 µM	21.2 µM	20.6 µM
COC(=O)C1=C(C(=O)OC)C2(c3ccccc3)c3ccccc3C(=O)C1N2C1CCCCC1 (centres undefined)	> 100 µM	> 100 µM	> 100 µM	> 100 µM	> 100 µM	> 100 µM	> 100 µM	> 100 µM	> 100 µM	> 100 µM	> 100 µM		> 100 µM	> 100 µM	> 100 µM	> 100 µM
CC1(C)C2CC1C(/C=N\OCC(=O)O)=CC2=O (centres undefined)	> 100 µM	> 100 µM	> 100 µM	> 100 µM	> 100 µM		97.9 µM	> 100 µM	> 100 µM	> 100 µM	> 100 µM	> 100 µM	> 100 µM	> 100 µM	> 100 µM	> 100 µM
CC(C)C(=O)CC(Sc1ccc(N)cc1)c1ccccc1 (centres undefined)	> 100 µM	47.1 µM	> 100 µM	> 100 µM	33.8 µM	30.2 µM	> 100 µM	> 100 µM	74.9 µM	> 100 µM	71.6 µM		> 100 µM	72.1 µM	39.8 µM	> 100 µM
CN(C(=O)C12C3C4C1C1C2C3C41C(=O)O)C(C)(C)C (centres undefined)	> 100 µM	> 100 µM	> 100 µM	> 100 µM	> 100 µM	> 100 µM	> 100 µM	> 100 µM	> 100 µM	> 100 µM	> 100 µM	> 100 µM	> 100 µM	> 100 µM	> 100 µM	
COc1ccc(OC)c2sc(N3C(=O)/C(=C/c4ccc(N(C)C)cc4)N=C3c3ccccc3)nc12	> 100 µM	63.4 µM	> 100 µM	> 100 µM	> 100 µM		> 100 µM	> 100 µM	> 100 µM	> 100 µM	> 100 µM	74.6 µM	> 100 µM	> 100 µM	> 100 µM	
COc1ccc2c(c1OC)C(Br)CCC(Br)(Br)C2=O (centres undefined)	11.6 µM	21.3 µM	28.9 µM	17.6 µM	10.8 µM	3.38 µM		15.3 µM	31 µM	14 µM	43 µM	4.22 µM	27.4 µM	27.7 µM	19.3 µM	22.6 µM
C=C[C@@]1(C)CC(=O)[C@]2(O)[C@@]3(C)[C@@H](OC(C)=O)CCC(C)(C)[C@@H]3[C@H](O)[C@H](OC(C)=O)[C@@]2(C)O1	> 100 µM	> 100 µM	> 100 µM	> 100 µM	> 100 µM		87.7 µM	> 100 µM	> 100 µM	> 100 µM	> 100 µM	> 100 µM		> 100 µM	> 100 µM	
C(=C\c1ccccc1)/Cn1nc(-c2ccccc2)nc1-c1cnccn1	> 100 µM	> 100 µM	> 100 µM	> 100 µM	> 100 µM	> 100 µM	> 100 µM	> 100 µM	> 100 µM	> 100 µM	> 100 µM	> 100 µM	> 100 µM	> 100 µM	> 100 µM	
C=CCN1C(=O)/C(=C/c2ccccc2)N=C1SC/C=C/C	> 100 µM	> 100 µM	> 100 µM		> 100 µM	> 100 µM	> 100 µM	> 100 µM	> 100 µM	> 100 µM	> 100 µM	23.3 µM	> 100 µM	> 100 µM	> 100 µM	
CC1=NN(c2cccc(Cl)c2)C(=N/c2nc3ccccc3s2)/C1=C\c1ccccc1O	> 100 µM	> 100 µM		97.8 µM	57.6 µM	49.4 µM	> 100 µM	> 100 µM	84.4 µM	> 100 µM	> 100 µM	77.3 µM	78.8 µM		> 100 µM	
c1ccc2c(c1)Sc1ccccc1N2CCCN1c2ccccc2Sc2ccccc21	> 100 µM	> 100 µM	> 100 µM	> 100 µM	> 100 µM	> 100 µM		45.2 µM	> 100 µM	> 100 µM	> 100 µM	> 100 µM	> 100 µM	> 100 µM	> 100 µM	> 100 µM
c1ccc2nc3c(nc2c1)sc1nc2ccccc2n13	> 100 µM	> 100 µM	> 100 µM	> 100 µM	> 100 µM		> 100 µM	> 100 µM	> 100 µM	> 100 µM	> 100 µM	> 100 µM	> 100 µM	> 100 µM	> 100 µM	> 100 µM
COC1/C=C/C(C)C(C(C)C(OC)C(C)CCC(=O)C(C)C(CC(=O)O)OC)OC(=O)/C=C/C=C(\C)CC(OC)C(OC)C2=CC(=O)O[C@@H](C(C)C(OC)CC(OC)/C=C/C(C)C(O)C1)[C@H]2O (some centres undefined)	> 1.07 µM	> 1.07 µM	> 1.07 µM	0.0701 µM	> 1.07 µM		0.0982 µM	0.12 µM	> 1.07 µM	0.15 µM	0.981 µM	> 1.07 µM	0.157 µM	> 1.07 µM	1.02 µM	
N#Cc1c(Cl)cccc1Oc1ccc(S(=O)(=O)/N=C(\NO)Nc2ccc(Cl)cc2)cc1	53.6 µM	46.2 µM	30 µM	31.5 µM	32 µM	35.6 µM		26.5 µM	36.4 µM	27.2 µM	28.3 µM	78.2 µM	46.9 µM	29.3 µM	31.7 µM	33.9 µM
N#Cc1cccc(Nc2ccccc2SSc2ccccc2Nc2cccc(C#N)c2)c1	> 21.5 µM	16.5 µM	19.5 µM	15.3 µM	8.88 µM	12.2 µM	> 21.5 µM	12 µM	12.8 µM		> 21.5 µM		> 21.5 µM	> 21.5 µM	18.2 µM	15.8 µM
C[C@@H]1C(=O)O[C@@H]2C[C@@]1(C)[C@@H]1C(=O)C3(O)OC14C2(C)OC(=O)[C@@]4(O)CCC1C3C(O)C=C2CC=CC(=O)[C@@]21C (some centres undefined)	> 100 µM	> 100 µM	37.8 µM	91 µM			54.2 µM	> 100 µM	> 100 µM	87.9 µM	> 100 µM	47.8 µM	> 100 µM	> 100 µM	79.4 µM	
COc1ccc2c(c1)nc1n2C(c2c(F)cccc2F)SC1 (centres undefined)	> 100 µM	> 100 µM	> 100 µM	> 100 µM	> 100 µM		> 100 µM	> 100 µM	> 100 µM	> 100 µM	> 100 µM	> 100 µM	> 100 µM	> 100 µM	> 100 µM	
